Experimental findings from PubChem BioAssay (NCI) are described below.

Among the test systems are IGROV1 ovarian; 786-0 renal; HOP-92 NSCLC; TK-10 renal; OVCAR-4 ovarian; SF-539 CNS; EKVX NSCLC; U251 CNS; HCT-15 colon; HL-60(TB) leukemia.
Holding throughout (assay): NCI anticancer screen, dose series, 48 h

“And” between values parts separate entries of the source, which are not always exact repeats. Identical values can stand only once.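 Each compound was tested at five concentrations against cells in 96-well plates for 48 hours. Here, GI50 denotes the concentration required for 50% inhibition of growth. TGI denotes the concentration required for complete inhibition of growth.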 Some results are limits rather than exact numbers.

Turning to `NC1=NN(c2ccccc2)C(=O)C1/C(=N\NC(=O)c1cc2ccccc2cc1O)C(=O)Nc1ccc(Cl)cc1` (stereo not drawn), the TGI in the assay with IGROV1 ovarian is 80.9 µM; in the assay on 786-0 renal, > 100 µM; in the assay with HOP-92 NSCLC, 71.3 µM; in the assay with TK-10 renal, > 100 µM; in the assay with OVCAR-4 ovarian it was > 100 µM; in the assay on SF-539 CNS it was 69.3 µM. Also, the TGI in the assay with EKVX NSCLC is 62.9 µM; in the assay on U251 CNS it was > 100 µM; with HCT-15 colon it was > 100 µM; with HL-60(TB) leukemia it was 14.7 µM.
As to `NC(=O)NC(=O)C1CCC(=O)N1S(=O)(=O)c1ccc(Cl)cc1` (stereo not drawn), the TGI in the assay on IGROV1 ovarian, in the assay with 786-0 renal, in the assay with HOP-92 NSCLC, in the assay with TK-10 renal, in the assay on OVCAR-4 ovarian and with SF-539 CNS was > 100 µM each time. The TGI in the assay with EKVX NSCLC, with U251 CNS, in the assay with HCT-15 colon and with HL-60(TB) leukemia was > 100 µM in each case.
`O=c1cccccc1[O-].O=c1cccccc1[O-].O=c1cccccc1[O-].[Dy+3]`: the TGI is > 100 µM with IGROV1 ovarian; > 100 µM with 786-0 renal; > 100 µM with HOP-92 NSCLC; > 100 µM in the assay on TK-10 renal; > 100 µM in the assay with OVCAR-4 ovarian; 78 µM in the assay on SF-539 CNS. Moreover, the TGI is > 100 µM in the assay on EKVX NSCLC, > 100 µM in the assay with U251 CNS, > 100 µM in the assay on HCT-15 colon and 54.3 µM in the assay on HL-60(TB) leukemia. The GI50 in the assay on SF-539 CNS was 17.9 µM; in the assay with U251 CNS, 24.8 µM.
With `CCNc1nc(-c2ccc(Cl)c(OC)c2)c(-c2ccnc(NCCNS(=O)(=O)c3ccc(Cl)cc3)n2)s1`, the GI50 in the assay on IGROV1 ovarian was 4.68 µM; in the assay with 786-0 renal, 3.46 µM; in the assay with HOP-92 NSCLC, 2.64 µM; in the assay on TK-10 renal, 4.09 µM; with OVCAR-4 ovarian, 3.82 µM; in the assay with SF-539 CNS, 2.51 µM. For the same molecule, the GI50 in the assay with EKVX NSCLC was 3.74 µM; in the assay with U251 CNS, 3.24 µM; in the assay on HCT-15 colon, 3.36 µM; in the assay on HL-60(TB) leukemia it was 2.87 µM. Further, the TGI is > 100 µM with IGROV1 ovarian; 13.9 µM in the assay with 786-0 renal; 9.58 µM in the assay on HOP-92 NSCLC; 41.8 µM in the assay with TK-10 renal; > 100 µM with OVCAR-4 ovarian; 6.63 µM in the assay with SF-539 CNS. The TGI with EKVX NSCLC is > 100 µM; in the assay with U251 CNS, 10.3 µM; in the assay with HCT-15 colon, > 100 µM; in the assay on HL-60(TB) leukemia it was 7.16 µM.
Consider `COC(=O)C(NC(=O)c1ccccc1)c1ccc(OC)c(I)c1` (stereo not drawn), for which the GI50 in the assay with IGROV1 ovarian is 53.2 µM; in the assay with 786-0 renal, > 100 µM; in the assay with HOP-92 NSCLC it was 58.6 µM; in the assay with TK-10 renal, 38.5 µM; in the assay on OVCAR-4 ovarian, 94.2 µM; in the assay on SF-539 CNS, > 100 µM. Further, the GI50 in the assay with EKVX NSCLC was 89.1 µM; in the assay with U251 CNS, 65.6 µM; in the assay with HCT-15 colon it was 35.5 µM; in the assay on HL-60(TB) leukemia, 41.6 µM. For the same molecule, the TGI in the assay on IGROV1 ovarian, in the assay with 786-0 renal, with HOP-92 NSCLC, in the assay on TK-10 renal, with OVCAR-4 ovarian and with SF-539 CNS was > 100 µM in each case. For the same molecule, the TGI with EKVX NSCLC, with U251 CNS, in the assay on HCT-15 colon and in the assay with HL-60(TB) leukemia was > 100 µM each time.
As for `CN1CCN(Cc2ccc(NC(=O)c3cncc(C#Cc4cnc5cccnn45)c3)cc2C(F)(F)F)CC1`, the GI50 in the assay on IGROV1 ovarian was 1.3 µM; in the assay with 786-0 renal, 1.14 µM; in the assay with HOP-92 NSCLC, 0.492 µM; with TK-10 renal, 1.88 µM; in the assay with OVCAR-4 ovarian, 0.732 µM; with SF-539 CNS it was 0.558 µM. Also, the GI50 was 1.19 µM with EKVX NSCLC, 1.48 µM with U251 CNS, 1.47 µM in the assay with HCT-15 colon and 0.818 µM in the assay with HL-60(TB) leukemia. Moreover, the TGI was found to be 5.59 µM in the assay on IGROV1 ovarian; 2.73 µM in the assay with 786-0 renal; 3.13 µM with HOP-92 NSCLC; 6.03 µM with TK-10 renal; 3.68 µM with OVCAR-4 ovarian; 1.33 µM with SF-539 CNS. Further, the TGI with EKVX NSCLC was 3.49 µM; with U251 CNS it was 5.42 µM; with HCT-15 colon, 5.3 µM; in the assay with HL-60(TB) leukemia, 2.44 µM.
`CCC(=C(c1ccc(OCCN(CC)CC)cc1)c1ccc(OCCN(CC)CC)cc1)c1ccc(Cl)cc1`: the GI50 in the assay with IGROV1 ovarian was 0.618 µM; in the assay with 786-0 renal it was 0.565 µM; with HOP-92 NSCLC, 0.5 µM; with TK-10 renal it was 0.528 µM; with OVCAR-4 ovarian it was 0.714 µM; in the assay on SF-539 CNS, 0.552 µM. Moreover, the GI50 with EKVX NSCLC was 0.641 µM; in the assay with U251 CNS, 0.57 µM; in the assay with HCT-15 colon it was 0.541 µM; with HL-60(TB) leukemia, 0.626 µM. The TGI in the assay with IGROV1 ovarian stood at 1.15 µM; in the assay on 786-0 renal it was 1.08 µM; in the assay on HOP-92 NSCLC, 1.18 µM; in the assay on TK-10 renal, 1.1 µM; with OVCAR-4 ovarian, 1.66 µM; in the assay on SF-539 CNS, 1.04 µM. Also, the TGI in the assay on EKVX NSCLC worked out at 1.46 µM; in the assay with U251 CNS it was 1.14 µM; in the assay on HCT-15 colon, 1.08 µM; in the assay with HL-60(TB) leukemia, 1.32 µM.
With `Cc1c2cc[n+](C)cc2c(C)c2c1[nH]c1ccc(Oc3ccccc3)cc12`, the TGI with IGROV1 ovarian was 33.5 µM and 24.5 µM; with 786-0 renal, > 64.3 µM; with HOP-92 NSCLC it was 7.37 µM and 6.77 µM; in the assay with TK-10 renal, > 71.2 µM and 30.2 µM; with OVCAR-4 ovarian, 36.5 µM and > 68.7 µM; in the assay with SF-539 CNS it was 20.2 µM and 21 µM. Also, the TGI with EKVX NSCLC is > 100 µM and 51.7 µM; with U251 CNS, > 100 µM; in the assay on HCT-15 colon, > 100 µM. Besides, the GI50 in the assay on TK-10 renal was 1.55 µM and 3.43 µM; in the assay with HL-60(TB) leukemia, 2.18 µM and 4.06 µM.
As for `O=C(/C=C/c1ccc(OCC(=O)N2CCN(c3ccccc3)CC2)cc1)c1ccccc1`, the TGI in the assay on IGROV1 ovarian was > 100 µM; in the assay with 786-0 renal, > 57.9 µM; in the assay with HOP-92 NSCLC, > 100 µM; in the assay on TK-10 renal, > 79.4 µM; in the assay with OVCAR-4 ovarian, > 100 µM; in the assay with SF-539 CNS, 46.8 µM. The TGI in the assay on EKVX NSCLC is 98.9 µM; in the assay with U251 CNS, 38 µM; with HCT-15 colon it was > 100 µM; with HL-60(TB) leukemia, 30.8 µM.
With `CC(C)(CCc1nc2ccccc2[nH]1)C(=O)O`, the TGI with IGROV1 ovarian, in the assay with 786-0 renal, in the assay on HOP-92 NSCLC, in the assay on TK-10 renal, with OVCAR-4 ovarian and in the assay on SF-539 CNS was > 100 µM throughout. Moreover, the TGI with EKVX NSCLC, in the assay with U251 CNS, in the assay on HCT-15 colon and with HL-60(TB) leukemia was > 100 µM in each case.
For `O=[N+]([O-])C1(CO)COC(CCc2ccccc2)OC1` (stereo not drawn), the TGI in the assay on IGROV1 ovarian, with 786-0 renal, in the assay on HOP-92 NSCLC, with TK-10 renal, with OVCAR-4 ovarian and in the assay on SF-539 CNS was > 100 µM each time. For the same molecule, the TGI in the assay with EKVX NSCLC, in the assay on U251 CNS, in the assay on HCT-15 colon and in the assay on HL-60(TB) leukemia was > 100 µM throughout.
In the case of `Cc1c(C(=O)C/C(=N/NC(=O)CC#N)C(N)=O)[n+](=O)c2ccccc2n1[O-]`, the TGI is 87.5 µM with IGROV1 ovarian; > 100 µM in the assay with 786-0 renal; > 100 µM in the assay with HOP-92 NSCLC; > 100 µM in the assay on TK-10 renal; > 100 µM with OVCAR-4 ovarian; > 100 µM with SF-539 CNS. Further, the TGI is > 100 µM in the assay on EKVX NSCLC, > 100 µM with U251 CNS, > 100 µM in the assay with HCT-15 colon and 69.4 µM in the assay on HL-60(TB) leukemia.
For the molecule `CCOC(=O)C1C(=O)C(=O)N2CCc3c([nH]c4ccccc34)C12` (stereo not drawn), the TGI in the assay with IGROV1 ovarian, in the assay on 786-0 renal, in the assay on HOP-92 NSCLC, in the assay on TK-10 renal, in the assay on OVCAR-4 ovarian and in the assay on SF-539 CNS was > 100 µM in each case. The TGI in the assay with EKVX NSCLC, in the assay on U251 CNS, with HCT-15 colon and in the assay with HL-60(TB) leukemia was > 100 µM throughout.
In the case of `CCn1c(SC)nnc1-c1cc2c([nH]c3ccccc32)c(-c2cccc(O)c2)n1`, the GI50 in the assay on IGROV1 ovarian was 2.57 µM; with 786-0 renal, 2.77 µM; in the assay on HOP-92 NSCLC it was 1.1 µM; in the assay on TK-10 renal it was 2.68 µM; with OVCAR-4 ovarian, 2.75 µM; with SF-539 CNS it was 1.46 µM. Besides, the GI50 in the assay on EKVX NSCLC is 3.02 µM; with U251 CNS it was 2.97 µM; in the assay on HCT-15 colon it was 0.95 µM; in the assay on HL-60(TB) leukemia it was 0.929 µM. The TGI in the assay on IGROV1 ovarian is 52 µM; in the assay with 786-0 renal, 10.9 µM; with HOP-92 NSCLC it was 9.08 µM; in the assay with TK-10 renal, 13.1 µM; with OVCAR-4 ovarian, 13 µM; with SF-539 CNS, 3.74 µM. Besides, the TGI with EKVX NSCLC is 26.2 µM; in the assay on U251 CNS, 19.1 µM; in the assay on HCT-15 colon, 51.6 µM; in the assay with HL-60(TB) leukemia it was 7.86 µM.
